From EP0390112B1, “Selective adenosine receptor agents” (MERRELL PHARMACEUTICALS INC., priority 1989, dated 1990)

Experiments:
[1] = molecular target: T1, Adenosine A-1 receptor (Rattus norvegicus, UniProt P25099); experiment: Test for affinity for brain adenosine A-1 receptor binding sites ([3H]cyclohexyladenosine competition); details: [3H]cyclohexyladenosine 0.8 nM, rat brain membranes, 25°C, 2 hours
T1 construct: the membranes are isolated from whole animal brains; from tissue; host or cells: whole brain of male Sprague-Dawley rats
T1 sequence (P25099 1-326): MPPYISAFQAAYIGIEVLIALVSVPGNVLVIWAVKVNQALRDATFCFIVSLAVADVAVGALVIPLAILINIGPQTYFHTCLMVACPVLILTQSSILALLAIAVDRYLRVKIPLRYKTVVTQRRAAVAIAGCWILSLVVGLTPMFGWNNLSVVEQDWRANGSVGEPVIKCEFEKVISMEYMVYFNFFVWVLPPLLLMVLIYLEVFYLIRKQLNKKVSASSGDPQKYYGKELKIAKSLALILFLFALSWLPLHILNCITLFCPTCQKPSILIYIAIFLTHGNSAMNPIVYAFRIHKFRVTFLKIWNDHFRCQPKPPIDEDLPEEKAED
Excerpt: Test For Affinity For Brain Adenosine A-1 Receptor Binding Sites
The test described below is used to determine the potency of test compounds to compete with the ligand [3H]cycloadenosine for the Adenosine A-1 receptor prepared from rat brain membranes. Male Sprague-Dawley rats are sacrificed by decapitation and the membranes are isolated from whole animal brains. (See R. Goodman, M. Cooper, M. Gavish, and S. Synder, Guanine Nucleotide and Cation Regulation of the Binding of [3H] Diethylphenylxanthine to Adenosine A-1 Receptors in Brain Membrane, Molecular Pharmacology, 21, 329-335, (1982), incorporated herein by reference.)
Membranes are homogenized (using polytron setting 7 for 10 seconds) in 25 volumes of ice-cold 50 mM Tris-HCl buffer, pH 7.7. The homogenate is centrifuged at 19,000 rpm for 10 minutes at 4°C. The pellet is washed by resuspending in 25 volumes of buffer with 2 IU of adenosine deaminase per ml and incubated 30 minutes at 37°C. The homogenate is centrifuged again. The final pellet is resuspended in 25 volumes of ice-cold buffer.
The incubation tubes, in triplicate, receive 100 µl of [3H]cyclohexyladenosine, 0.8 nM in the assay, 200 µl of test compounds at various concentrations over the range of 10^-10 M to 10^-6 M diluted with […] Tris-HCl buffer (pH 7.7), 0.2 ml of membrane suspension (8 mg wet weight) and in a final volume of 2 ml with Tris buffer. Incubations are carried out at 25°C for 2 hours and each one is terminated within 10 seconds by filtration through a GF/B glass fiber filter using a vacuum. The membranes on the filters are transferred to scintillation vials. The filters are counted by liquid scintillation spectometry in 8 ml of Omniflour containing 5% Protosol.
Specific binding of [3H]cycloadenosine is measured as the excess over blanks taken in the presence of 10^-5 M 2-chloroadenosine. Total membrane-bound radioactivity is about 5% of that added to the test tubes. Specific binding to membranes is about 90% of the total bound. Protein content of the membrane suspension is determined by the method of Lowry, et al. Id., 265.
Displacement of [3H]cyclohexyladenosine binding of 15% or more by a test compound is indicative of affinity for the adenosine binding site.

[2] = molecular target: T2, adenosine A-2 receptors (Rattus norvegicus, UniProt P30543); experiment: Test for affinity for brain adenosine A-2 receptors ([3H]NECA competition); type: binding; details: rat brain striatum membranes, 25°C, 60 minutes, read-out: A-2 Receptor Ki
T2 construct: the adenosine A-2 receptors prepared from animal brain membranes; from tissue; host or cells: striatum of young male rats (C-D strain, Charles River)
T2 sequence (P30543 whole entry): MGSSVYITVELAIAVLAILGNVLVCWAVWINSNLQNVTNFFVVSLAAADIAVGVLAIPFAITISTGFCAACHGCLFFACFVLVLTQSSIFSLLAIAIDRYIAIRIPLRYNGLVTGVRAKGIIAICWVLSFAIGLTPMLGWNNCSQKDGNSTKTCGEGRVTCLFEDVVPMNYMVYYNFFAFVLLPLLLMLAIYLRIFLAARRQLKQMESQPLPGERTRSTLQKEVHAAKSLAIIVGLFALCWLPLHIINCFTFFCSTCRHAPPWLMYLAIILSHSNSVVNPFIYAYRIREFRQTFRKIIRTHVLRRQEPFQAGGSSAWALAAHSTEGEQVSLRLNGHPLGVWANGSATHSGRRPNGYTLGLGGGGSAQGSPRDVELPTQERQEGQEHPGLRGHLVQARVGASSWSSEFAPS
Excerpt: Test For Affinity For Brain Adenosine A-2 Receptors
The test described below was used to determine the potency of test compounds to compete with the ligand [3H]5′-N-ethyl-carboxamidoadenosine (NECA) for the adenosine A-2 receptors prepared from animal brain membranes. (See also R.R. Bruns, G.H. Lu, and T.A. Pugsley, Characterization of the A-2 Adenosine Receptor Labeled by [3H]NECA in Rat Striatal Membranes, Mol. Pharmacol., 29, 331-346, (1986), incorporated herein by reference.) Young male rats (C-D strain), obtained from Charles River, are killed by decapitation and the brain was removed. Membranes for ligand binding are isolated from rat brain striatum. The tissue is homogenized in 20 vol ice-cold 50 mM Tris-HCl buffer (pH 7.7) using a polytron (setting 6 for 20 seconds). The homogenate is centrifuged at 50,000 x g for 10 minutes at 4°C. The pellet is again homogenized in a polytron in 20 vol of buffer, and centrifuged as before. The pellet is finally resuspended in 40 vol of 50mM Tris-HCl (pH 7.7) per gram of original wet weight of tissue.
Incubation tubes, in triplicate, receive 100 µl of [3H]NECA (94 nM in the assay), 100 µl of 1 µM cyclohexyladenosine (CHA), 100 µl of 100 mM MgCl2, 100 µl of 1 IU/ml adenosine deaminase, 100 µl of test compounds at various concentrations over the range of 10^-10 M to 10^-4 M diluted with assay buffer (50 mM Tris-HCl, pH 7.7) and […] of membrane suspension (5 mg wet weight), in a final volume of 1 ml of 50 mM Tris-HCl, pH 7.7. Incubations are carried out at 25°C for 60 minutes. Each tube is filtered through GF/B glass fiber filters using a vacuum. The filters are rinsed two times with 5 ml of the ice-cold buffer. The membranes on the filters are transferred to scintillation vials to which 8 ml of Omnifluor with 5% Protosol is added. The filters are counted by liquid scintillation spectrometry.
Specific binding of [3H]NECA is measured as the excess over blanks run in the presence of 100 µM 2-chloroadenosine. Total membrane-bound radioactivity is about 2.5% of that added to the test tubes. […] Specific binding to membranes is about 50% of the total bound. Protein content of the membrane suspension is determined by the method of O.H. Lowry, N.J. Rosebrough, A.L. Farr and R.J. Randall, Protein Measurements With Folin Phenol Reagent, J. Biol. Chem., 193, 265-275 (1951), (incorporated herein by reference).
Displacement of [3H]NECA binding of 15% or more by a test compound is indicative of affinity for the adenosine A-2 site. The molar concentration of a compound which causes 50% inhibition of the binding of ligand is the IC50.

[3] = molecular target: A-2 receptors; details: brain slice assay; cited from earlier work

SMILES	Ki [1] [nM]	Ki [2] [nM]	Ki [3] [nM]
CCCOc1nc(N[C@@H](C)Cc2ccccc2)c2cnn(-c3ccccc3)c2n1 [Compound 2, (S)-N-(1-methyl-2-phenylethyl)-1-phenyl-6-propoxy-1H-pyrazolo[3,4-d]pyrimidin-4-amine]	11300	> 6990	
CCCn1c(=O)c2[nH]c(-c3ccc(OCC(=O)NCCN)cc3)nc2n(CCC)c1=O [XAC, amino congener of 8-phenyl-1,3-dipropyl-xanthine]			49 ± 17
CCCOc1nc(N[C@H](C)Cc2ccccc2)c2cnn(-c3ccccc3)c2n1 [Compound 1, (R)-N-(1-methyl-2-phenylethyl)-1-phenyl-6-propoxy-1H-pyrazolo[3,4-d]pyrimidin-4-amine]	2010	3630	
CCCn1c(=O)c2[nH]c(-c3ccc(OCC(=O)O)cc3)nc2n(CCC)c1=O [XCC, carboxylic acid congener of 8-phenyl-1,3-dipropyl-xanthine]			34 ± 13

More lines, main results first:

Ki [1] [nM]	Ki [2] [nM]	SMILES	Ki [3] [nM]
1740	2900	CCCOc1nc(N[C@H](CO)Cc2ccccc2)c2cnn(-c3ccccc3)c2n1 [Compound 3, (S)-β-[(1-phenyl-6-propoxy-1H-pyrazolo[3,4-d]pyrimidin-4-yl)amino]benzenepropanol]	
44	1900	CCCOc1nc(N[C@H](CO)Cc2ccccc2)c2ncn([C@@H]3O[C@H](CO)[C@@H](O)[C@H]3O)c2n1 [Compound 6]	
3700	17200	CCCOc1nc(N[C@@H](CO)Cc2ccccc2)c2ncn([C@@H]3O[C@H](CO)[C@@H](O)[C@H]3O)c2n1 [Compound 5]	
321	377	CCCOc1nc(N[C@@H](CO)Cc2ccccc2)c2cnn(-c3ccccc3)c2n1 [Compound 4, (R)-β-[(1-phenyl-6-propoxy-1H-pyrazolo[3,4-d]pyrimidin-4-yl)amino]benzenepropanol]	
